“And” between values parts separate entries of the source, which are not always exact repeats. Equal entries are not always repeated.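 Five compound concentrations were applied to cells in 96-well plates for 48 hours; endpoints were derived by simple linear interpolation of the resulting dose-response curve. GI50 is the concentration that inhibits growth by half. TGI denotes the concentration required for complete inhibition of growth.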

GI50 and TGI data for 14 molecules are collected here from PubChem BioAssay (NCI).

Some test systems named below: SNB-75 CNS; T-47D breast; RPMI-8226 leukemia; CCRF-CEM leukemia; NCI/ADR-RES ovarian; CAKI-1 renal; SR leukemia.
What all share (experiment): NCI tumour cell line growth inhibition, 48 h

For the molecule `COc1ccc(CNC(=O)c2c(C)n([O-])c3cc(F)c(F)cc3[n+]2=O)cc1`, the GI50 in the test on SNB-75 CNS was 0.461 µM; in the test with T-47D breast, 3.33 µM; with RPMI-8226 leukemia it was 6.4 µM; in the test with CCRF-CEM leukemia, 3.2 µM; in the test with NCI/ADR-RES ovarian, 17 µM. Moreover, the TGI was 5.58 µM in the test with SNB-75 CNS; 16.1 µM in the test on T-47D breast; 30.9 µM with RPMI-8226 leukemia; 12.4 µM with CCRF-CEM leukemia; 31.6 µM in the test on NCI/ADR-RES ovarian.

Turning to `CC1SC(c2cccc(Cl)c2)N(NC(=O)C(O)c2ccccc2)C1=O` (stereo not given), the GI50 in the test on SNB-75 CNS was 79.1 µM; in the test with T-47D breast, more than 100 µM; in the test on RPMI-8226 leukemia, 43.2 µM; with CAKI-1 renal, more than 100 µM; with CCRF-CEM leukemia, more than 100 µM. Moreover, the TGI in the test with SNB-75 CNS, in the test on T-47D breast, in the test with RPMI-8226 leukemia, in the test with CAKI-1 renal and in the test with CCRF-CEM leukemia was more than 100 µM each time.

For `CCC(=O)OCN1C(=O)C=CC1=O`, the GI50 in the test with RPMI-8226 leukemia is 19.3 µM and 4.42 µM; in the test with SR leukemia, 3.27 µM; in the test on CAKI-1 renal, 10.5 µM. The TGI with RPMI-8226 leukemia is 56.2 µM and 13.5 µM; in the test on SR leukemia, more than 100 µM; with CAKI-1 renal, 25.3 µM and 9.35 µM; in the test with CCRF-CEM leukemia, 1.84 µM; with NCI/ADR-RES ovarian, 56.2 µM and 63.5 µM.

With `CC1(C)N=C(N)N=C(N)N1c1ccc(CCC(=O)Nc2cccc(S(=O)(=O)F)c2)cc1`, the GI50 was 5.34 µM in the test with SNB-75 CNS; 68.7 µM in the test on T-47D breast; 36.4 µM in the test with RPMI-8226 leukemia; more than 100 µM in the test on CAKI-1 renal; more than 100 µM with NCI/ADR-RES ovarian. Besides, the TGI in the test with SNB-75 CNS, with T-47D breast, in the test with RPMI-8226 leukemia, in the test on CAKI-1 renal and with NCI/ADR-RES ovarian was more than 100 µM each time.

As to `N#CC(CC(=O)O)=C(c1ccccc1)c1ccccc1`, the TGI in the test with SNB-75 CNS, with RPMI-8226 leukemia, in the test on SR leukemia, with CAKI-1 renal and with NCI/ADR-RES ovarian was more than 100 µM throughout.

As for `CCCNC(=O)Nc1ccc2c(c1)Cc1cc(N(CCCl)CCCl)ccc1-2`, the TGI in the test with RPMI-8226 leukemia, with SR leukemia, in the test with CAKI-1 renal, with CCRF-CEM leukemia and in the test with NCI/ADR-RES ovarian was more than 100 µM each time.

As to `O=C(N/N=C/c1cccc(O)c1)c1ccc(C(F)(F)F)nc1Nc1cccc(C(F)(F)F)c1`, the GI50 was 1.58 µM in the test with SNB-75 CNS; 1.54 µM in the test with T-47D breast; 1.32 µM in the test with RPMI-8226 leukemia; 1.17 µM with CAKI-1 renal; 0.258 µM with CCRF-CEM leukemia; 2.04 µM in the test with NCI/ADR-RES ovarian. For the same molecule, the TGI in the test with SNB-75 CNS was 6.03 µM; in the test on T-47D breast, 7.08 µM; with RPMI-8226 leukemia, 3.99 µM; in the test on CAKI-1 renal it was 3 µM; in the test with CCRF-CEM leukemia, 1.08 µM; in the test on NCI/ADR-RES ovarian it was 5.93 µM.

With `Nc1nc(Cl)c2ncn(Cc3ccc(-c4ccc(CCl)cc4)cc3)c2n1`, the GI50 in the test with SNB-75 CNS is 10.3 µM; in the test with RPMI-8226 leukemia, 1.43 µM; in the test on SR leukemia it was 3.09 µM; in the test on CAKI-1 renal it was 5.76 µM; in the test with NCI/ADR-RES ovarian, 10.4 µM. Also, the TGI in the test with SNB-75 CNS is 28.1 µM; in the test with RPMI-8226 leukemia, 5.58 µM; with SR leukemia, more than 100 µM; with CAKI-1 renal, 33.3 µM; with NCI/ADR-RES ovarian, 34.3 µM.

With `CC1CC2(C)CC(=O)C1C1C(=O)N(CCN3CCOCC3)C(=O)C12` (stereo not given), the GI50 in the test with SNB-75 CNS, in the test on T-47D breast, in the test with SR leukemia, in the test on CAKI-1 renal, with CCRF-CEM leukemia and in the test on NCI/ADR-RES ovarian was more than 100 µM in each case. Moreover, the TGI in the test on SNB-75 CNS, in the test with T-47D breast, in the test with SR leukemia, with CAKI-1 renal, in the test on CCRF-CEM leukemia and in the test with NCI/ADR-RES ovarian was more than 100 µM throughout.

For the molecule `N#CC1C(=O)NC(=O)C(C#N)C1c1ccc(Cl)c(Cl)c1` (stereo not given), the TGI in the test with SNB-75 CNS was 74.2 µM; with T-47D breast, more than 100 µM; in the test with SR leukemia it was 41.6 µM; with CAKI-1 renal it was 71.6 µM; in the test with CCRF-CEM leukemia, 31.9 µM; with NCI/ADR-RES ovarian it was 83.1 µM.

With `O=C1CC2OCC=C3CN4CCC56c7ccccc7N1C5C2C3CC46` (stereo not given) (tested in a mixture with another compound), the GI50 in the test on SNB-75 CNS, in the test on T-47D breast, with RPMI-8226 leukemia, with CAKI-1 renal and with NCI/ADR-RES ovarian was more than 50 µg/mL in each case. Besides, the TGI in the test on SNB-75 CNS, with T-47D breast, in the test with RPMI-8226 leukemia, in the test with CAKI-1 renal and in the test with NCI/ADR-RES ovarian was more than 50 µg/mL each time.

As for `C=C1C(OCCO)OC2O[C@]3(C)CCC4[C@H](C)CCC1C24OO3` (stereo not given in full), the GI50 in the test with T-47D breast was 1.56 µM; in the test with RPMI-8226 leukemia, 0.591 µM; in the test with SR leukemia, 2.36 µM; with CAKI-1 renal, 19 µM; in the test on CCRF-CEM leukemia it was 4.92 µM; with NCI/ADR-RES ovarian it was 36 µM. In addition, the TGI with T-47D breast is more than 100 µM; with RPMI-8226 leukemia, 16.5 µM; in the test with SR leukemia it was 26.2 µM; in the test on CAKI-1 renal, 40.5 µM; with CCRF-CEM leukemia, 28.4 µM; in the test with NCI/ADR-RES ovarian, more than 100 µM.

As to `CN(C)c1ccc(/C=N/NC(=O)c2cnc3ccccc3c2)cc1`, the TGI was 50.6 µM in the test on SNB-75 CNS, more than 100 µM in the test with RPMI-8226 leukemia, more than 100 µM in the test with CAKI-1 renal and more than 100 µM in the test with NCI/ADR-RES ovarian.

Take `NC(=S)N=Nc1c(O)[nH]c2ccccc12`: the GI50 with SNB-75 CNS is 91.7 µM and 174 µM; with T-47D breast it was 184 µM; with RPMI-8226 leukemia, 194 µM; in the test with SR leukemia, 98.2 µM; with CAKI-1 renal, 32 µM and 73.4 µM; in the test with CCRF-CEM leukemia, 253 µM. The TGI was 419 µM with SNB-75 CNS; 617 µM in the test with T-47D breast; 708 µM in the test on RPMI-8226 leukemia; 251 µM in the test with CAKI-1 renal; more than 1000 µM in the test with CCRF-CEM leukemia.
